{"source": "patent US20250154180A1", "about": "“CRK-LIKE (CRKL) ADAPTOR PROTEIN INHIBITORS AND METHODS OF MAKING AND USING THE SAME” (Rutgers, The State University of New Jersey, priority 2022, published 2025)", "key": {"Sk-Hep1 tumor": {"system": "Sk-Hep1 tumor", "assay": "HCC Sk-Hep1 xenograft model", "type": "in vivo, NSG mice", "details": "four-group study, 5.0 μg/g oral gavage", "text": "To further test whether the tumor growth inhibition effect of NC5 applied to other solid tumors, the HCC-Sk-Hep1cell line and PDAC-BXPC3 cell line xenograft models were used. Subcutaneous injection of 1.5×10^6 SK-Hep1 or BXPC3 cells in NSG mice, Six-ten days after tumor cell injection, the palpable tumor in NSG mice was confirmed.\n(§1) To test the effects of the disclosed compounds on the xenograft mouse models, the HCC-Sk-Hep1 cell line xenograft model in NSG mice and 4T1-Luc orthotopic syngeneic breast tumor model in Balb/c mice was used. After confirming the palpable tumor in NSG or Balb/c mice. […] Compound III is referred to as “NC5-140-1” and Compound I is referred to as “NC5-140-2” in FIGS. 11A-11C."}, "[1]": {"system": "PBNK cells killing activity towards MDA-MB-231", "assay": "Cr51 release assay, PBNK killing of MDA-MB-231", "type": "cell-based", "details": "1 uM overnight", "method": "(§2) PBNK cells were incubated with 1 uM NC5 or Compound III overnight, then cells were harvested for Cr51 release assay to check cell cytotoxicity. […] The star symbol indicates the significance of vehicle control vs. NC5 of the indicated E:T ratios. *p<0.05, **p<0.01, n=3."}, "MDA468 cell line": {"system": "MDA468 cell line", "assay": "CCK-8 cell viability, MDA468", "type": "cell-based", "details": "1 uM, 5 uM, 10 uM; 48 hours", "method": "(§3) In this example, activities of NC5, Compound III, and the known chemotherapeutic, Sorafenib, were evaluated in HepG2, SKHep1, Huh7, and MDA468 cell lines. Cells from each cell line were collected and seeded at 5,000 cells/well in 96-well plates. The cells were incubated for 24 hours before the addition of either DMSO control or drug at various concentrations. After an additional 48 hours of incubation, 3 μL of CCK-8 was added to every well and incubated at 37° C. for 3 hours. Absorbance was measured at 460 nm in a plate reader. Cells from each cell line were treated with NC5 and Compound III at various concentrations (1 uM, 5 uM, 10 uM). The related absorbance was normalized and plotted as line graphs. p-values were determined through two tails student t-tests (*=p<0.5, **=p<0.01, ***=p<0.001)."}, "Huh7 cell line": {"system": "Huh7 cell line", "assay": "CCK-8 cell viability, Huh7", "type": "cell-based", "details": "1 uM, 5 uM, 10 uM; 48 hours", "method": "as §3"}, "Sk-Hep1 cells": {"system": "Sk-Hep1 cells", "assay": "Growth inhibition of Sk-Hep1 cells (cell culture images)", "type": "cell-based", "details": "5 μM, 24 hours"}, "[2]": {"system": "pCrkL (T207) in Sk-Hep1 cells", "assay": "Flow cytometry of H2O2-induced pCrkL, Sk-Hep1", "type": "cell-based", "details": "50 uM H2O2 1 hour, then 10 uM compound 24 hours", "method": "In this example, Sk-Hep1 cells were pretreated with 50 uM H2O2 for 1 hour to induce activation of pCrkL and were then incubated with 10 uM NC5 or Compound III for 24 hours. pCrkL (T207) expression was determined by flow cytometry."}, "BXPC3 cells": {"system": "BXPC3 cells", "assay": "XTT cell viability, BXPC3", "type": "cell-based", "details": "24 and 48 hours", "method": "(§4) FIGS. 8A-8C show results using MDA-MB-231 cells (FIG. 8A) or BXPC3 cells (FIG. 8B), wherein the cells were treated with 5 μM of NC5, Compound III (referred to as “NC5-140-1” in FIGS. 8A-8C), and Compound I (referred to as “NC5-140-2” in FIGS. 8A-8C) for 24-48 hours, wherein the XTT assay was used to determine cell viability. The symbol indicates the significance of NC5 vs. Compounds I and/or III; *p<0.05. Data represent mean±SEM.\n(§5) Compound embodiments, compound III and compound I, were also made and evaluated. TNBC cells and PDAC cells were treated with a serial dose of original NC5 and modified NC5 derivatives for 24 and 48 hours. The cell viability will be measured by XTT assay. […] Compound III is referred to as “NC5-140-1” and Compound I is referred to as “NC5-140-2” in FIGS. 8A-8C."}, "Thermodynamic solubility": {"assay": "Thermodynamic solubility", "type": "physicochemical", "details": "thermodynamic from solid", "method": "In this example, solubility measurement assays were performed using a phosphate buffer (also referred to as “PB”) system and a water system to evaluate thermodynamic solubility. The PB system was at a pH of 7.4 to mimic in vivo environments. For the PB system, the values were determined to be NC5: Thermodynamic Solubility pH=7.4<0.42 μg/mL; Compound III: Thermodynamic Solubility pH=7.4<0.48 μg/mL; and Compound I: Thermodynamic Solubility pH=7.4<0.48 μg/mL. Results for the water assay were as follows: NC5: Thermodynamic Solubility Water<0.42 μg/mL; Compound III: Thermodynamic Solubility Water<0.48 μg/mL; and Compound I: Thermodynamic Solubility Water<0.48 μg/mL."}, "MDA-MB-231 cells": {"system": "MDA-MB-231 cells", "assay": "XTT cell viability, MDA-MB-231", "type": "cell-based", "details": "24 and 48 hours", "method": "as §4, §5"}, "HepG2 cell line": {"system": "HepG2 cell line", "assay": "CCK-8 cell viability, HepG2", "type": "cell-based", "details": "1 uM, 5 uM, 10 uM; 48 hours", "method": "as §3"}, "AML cell line (MoLM-13)": {"system": "AML cell line (MoLM-13)", "assay": "CCK-8 cell viability, MoLM-13", "type": "cell-based, human", "details": "1 uM, 5 uM, 10 uM; 48 hours", "method": "In this example, activities of NC5, Compound III, and the known chemotherapeutic, Cytarabine, were evaluated in the AML cell line (MoLM-13). MoLM-13 cells were collected and seeded at 5,000 cells/well in 96-well plates. The cells were incubated for 24 hours before the addition of either DMSO control or drug at various concentrations. After an additional 48 hours of incubation, 3 μL of CCK-8 was added to every well and incubated at 37° C. for 3 hours. Absorbance was measured at 460 nm in a plate reader. […] The related absorbance was normalized and plotted as line graphs. p-values were determined through two tails student t-tests (*=p<0.5, **=p<0.01, ***=p<0.001)."}, "SKHep1 cell line": {"system": "SKHep1 cell line", "assay": "CCK-8 cell viability, SKHep1", "type": "cell-based", "details": "1 uM, 5 uM, 10 uM; 48 hours", "method": "as §3"}, "4T1 breast tumor": {"system": "4T1 breast tumor", "assay": "4T1-Luc orthotopic syngeneic breast tumor model", "type": "in vivo, Balb/c mice", "details": "5.0 μg/g oral gavage", "text": "Syngeneic orthotopic 4T1 breast tumor-bearing mouse model was established by inoculating 5×10^4 4T1-Luc cells mixed with Matrigel were into the left inguinal fat pad of Balb/c mice from Jackson Laboratories. This orthotopic syngeneic breast tumor model is a tool for preclinical testing of anti-cancer drugs or immunotherapy that require an intact immune system to elicit activity.\nas §1"}, "[3]": {"system": "PBNK cells killing activity towards SK-Hep1", "assay": "Cr51 release assay, PBNK killing of SK-Hep1", "type": "cell-based", "details": "1 uM overnight", "method": "as §2"}}, "note": "Like-named read-outs stand apart in the source and are kept apart here.", "data": [{"smiles": "CC(C)=CCc1c2c(c3occ(-c4ccc5c(c4)OS(=O)(=O)O5)c(=O)c3c1O)C=CC(C)(C)O2", "note": "[Compound III]", "values": [{"measurement": "tumor growth", "setting": "Sk-Hep1 tumor", "value": "inhibit tumor growth"}, {"measurement": "median survival", "setting": "Sk-Hep1 tumor; vehicle 26 days", "value": 34.5, "unit": "days"}, {"measurement": "PBNK cells killing activity (Cr51 release)", "setting": "[1]", "value": "increased PBNK cells killing activity"}, {"measurement": "cell viability (CCK-8)", "setting": "MDA468 cell line", "value": "decreased cell viability significantly"}, {"measurement": "cell viability (CCK-8)", "setting": "Huh7 cell line", "value": "decreased cell viability significantly"}, {"measurement": "toxic effect compared with NC5 (growth inhibition)", "setting": "Sk-Hep1 cells", "value": "better toxic effect than NC5"}, {"measurement": "H2O2 induced pCrkL protein levels", "setting": "[2]", "value": "inhibited H2O2 induced pCrkL protein levels"}, {"measurement": "toxic effect compared with NC5 (XTT viability)", "setting": "BXPC3 cells", "value": "better toxic effect than NC5"}, {"measurement": "solubility thermodynamic", "setting": "Thermodynamic solubility; aqueous buffer, phosphate buffer (PB) system, pH 7.4, read-out: Thermodynamic Solubility pH=7.4", "value": "< 0.48", "unit": "µg/mL"}, {"measurement": "solubility thermodynamic", "setting": "Thermodynamic solubility; water system, read-out: Thermodynamic Solubility Water", "value": "< 0.48", "unit": "µg/mL"}, {"measurement": "toxic effect compared with NC5 (XTT viability)", "setting": "MDA-MB-231 cells", "value": "comparable toxic effect as NC5"}, {"measurement": "cell viability (CCK-8)", "setting": "HepG2 cell line", "value": "decreased cell viability significantly"}, {"measurement": "cell viability (CCK-8)", "setting": "AML cell line (MoLM-13)", "value": "decrease cell viability significantly"}, {"measurement": "cell viability (CCK-8)", "setting": "SKHep1 cell line", "value": "decreased cell viability significantly"}, {"measurement": "tumor growth", "setting": "4T1 breast tumor", "value": "steady growth inhibition"}, {"measurement": "median survival", "setting": "4T1 breast tumor; vehicle 25 days", "value": 39.5, "unit": "days"}, {"measurement": "PBNK cells killing activity (Cr51 release)", "setting": "[3]", "value": "increased PBNK cells killing activity"}]}]}
